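Values below derive from 48-hour exposures of cells grown in 96-well plates, with endpoints linearly interpolated between the two concentrations bracketing the appropriate inhibition level. Here, GI50 denotes the concentration required for 50% inhibition of growth. TGI denotes the concentration required for complete inhibition of growth.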 Where a SMILES comes first, the peptide text is derived from it. [ ]: non-standard residue; d: D form. NMeY = CN[C@@H](Cc1ccc(O)cc1)C(=O)O; dNMeF = CN[C@H](Cc1ccccc1)C(=O)O; Sar = CNCC(=O)O
Key:
Test in all cases: DTP human tumour cell line panel, 48 h
KM12 colon = test system: KM12 colon
SK-MEL-5 melanoma = test system: SK-MEL-5 melanoma
T-47D breast = test system: T-47D breast
OVCAR-8 ovarian = test system: OVCAR-8 ovarian
OVCAR-5 ovarian = test system: OVCAR-5 ovarian
U251 CNS = test system: U251 CNS
SK-MEL-2 melanoma = test system: SK-MEL-2 melanoma
SNB-75 CNS = test system: SNB-75 CNS
M14 melanoma = test system: M14 melanoma
NCI/ADR-RES ovarian = test system: NCI/ADR-RES ovarian

| Structure (SMILES) | GI50 (KM12 colon) [µM] | TGI (KM12 colon) [µM] | GI50 (SK-MEL-5 melanoma) [µM] | TGI (SK-MEL-5 melanoma) [µM] | GI50 (T-47D breast) [µM] | TGI (T-47D breast) [µM] | GI50 (OVCAR-8 ovarian) [µM] | TGI (OVCAR-8 ovarian) [µM] | GI50 (OVCAR-5 ovarian) [µM] | TGI (OVCAR-5 ovarian) [µM] | GI50 (U251 CNS) [µM] | TGI (U251 CNS) [µM] | GI50 (SK-MEL-2 melanoma) [µM] | TGI (SK-MEL-2 melanoma) [µM] | GI50 (SNB-75 CNS) [µM] | TGI (SNB-75 CNS) [µM] | GI50 (M14 melanoma) [µM] | TGI (M14 melanoma) [µM] | GI50 (NCI/ADR-RES ovarian) [µM] | TGI (NCI/ADR-RES ovarian) [µM] |
| --- | --- | --- | --- | --- | --- | --- | --- | --- | --- | --- | --- | --- | --- | --- | --- | --- | --- | --- | --- | --- |
| ClC1=NC(Cl)C(Cl)=N/C1=N\c1ncn[nH]1 (stereo not given) | 2.27 | 4.79 | 5.57 | 18.7 | 1.9 | 3.91 | 2.27 | 6.05 | 1.71 | 3.27 | 4.88 | 17 | 2.61 | 5.63 | 5.64 | 20.7 | 2.64 | 7.15 | 3.15 | 8.79 |
| CC[C@H](C)[C@@H]1NC(=O)[C@H](Cc2ccc(O)cc2)N(C)C(=O)[C@H](Cc2ccccc2)NC(=O)CN(C)C(=O)[C@@H]2CCCN2C(=O)[C@@H](Cc2ccccc2)N(C)C(=O)[C@H](CC(C)C)NC1=O (cyclo(F[NMeY]IL[dNMeF]P[Sar])) | 0.271 | 5.48 | 0.485 | 1.85 | 0.157 | 6.21 | 0.352 | 12.8 | 0.299 | 8.09 | 0.146 | 7.26 | 0.327 | 1.91 | 0.206 | 2.78 | 0.371 | 2.58 | 14 | > 100 |
| C[C@H]1[C@H](C)CC[C@]2(C(=O)O)CC[C@]3(C)C(=CC[C@@H]4[C@@]5(C)CC[C@H](OC(=O)/C=C/c6ccc(O)cc6)C(C)(C)[C@@H]5CC[C@]43C)[C@H]12 | 1.09 | 9.97 | 4.91 | 14.9 | 13.3 | > 60.1 | 2.8 | 18.3 | 5.27 | 12.7 | 6.54 | 17.2 | 13.5 | 50.1 | 4.82 | 28.9 | 4.13 | 12.5 | 10.9 | 26.1 |
| Nc1c(C(=O)c2cccc(CCC3(O)CCCC3)c2)cnn1-c1ccc(F)cc1 | 17.1 | > 25 | 4.78 | 13.3 | 6.52 | > 25 | 11.4 | > 25 | > 25 | > 25 | 14.2 | > 25 | > 25 | > 25 | 8.47 | > 25 | 14.9 | > 25 | 7.68 | > 25 |
| CO[C@H]1C[C@@H]2CC[C@@H](C)[C@@](O)(O2)C(=O)C(=O)N2CCCC[C@H]2C(=O)O[C@H]([C@H](C)C[C@@H]2CC[C@@H](OP(C)(C)=O)[C@H](OC)C2)CC(=O)[C@H](C)/C=C(\C)[C@@H](O)[C@@H](OC)C(=O)[C@H](C)C[C@H](C)/C=C/C=C/C=C/1C | 11.1 | 25.3 | – | 18.4 | < 0.01 | 23 | < 0.01 | 28.8 | 11.4 | 27.6 | 0.0208 | 19.2 | 2.31 | 22.4 | < 0.01 | 15.7 | 11.8 | 26 | 11 | 30.8 |
| O=c1oc2ccc(Cl)cc2c(=O)n1-c1cc(C(F)(F)F)cc(C(F)(F)F)c1 | 0.342 | 1.32 | 0.138 | 0.336 | 0.229 | 2.4 | 0.323 | – | 0.423 | 17.4 | 0.254 | 11.6 | 0.236 | 0.846 | 0.201 | 0.786 | 0.3 | 1.78 | 0.264 | 1.37 |
| O=C(O)c1ccc(NCc2nc3cc4ccccc4cc3[nH]2)cc1 | – | > 100 | – | > 72.7 | – | > 100 | – | > 100 | – | > 100 | – | > 100 | – | > 86.3 | – | > 100 | – | > 100 | – | > 100 |
| COc1cccc(-n2ncc3c(N/N=C/c4ccc(S(C)(=O)=O)cc4)ncnc32)c1 | 6.29 | > 25 | 3.45 | > 15.8 | 7.4 | > 21 | 6.11 | 15.6 | > 25 | > 25 | 4.99 | 17.6 | 9.94 | > 25 | 1.89 | 4.32 | 5.74 | > 25 | 9.1 | > 25 |
| Nc1ccn(C2CC(O)C(CO)O2)c(=O)n1 (stereo not given) | > 5000 | > 5000 | > 5000 | > 5000 | > 5000 | > 5000 | > 5000 | > 5000 | > 5000 | > 5000 | > 5000 | > 5000 | > 5000 | > 5000 | > 5000 | > 5000 | > 5000 | > 5000 | > 5000 | > 5000 |
| O=C(O)CCCSc1nc2ccccc2s1 | – | > 100 | – | > 100 | – | > 100 | – | > 100 | – | > 100 | – | > 100 | – | > 100 | – | > 100 | – | > 100 | – | > 100 |
| COc1ccc2[nH]c(=O)c(/C=C/C(=O)/C=C/c3ccc(O)c(OC)c3)cc2c1 | 1.08 | 2.66 | 1.77 | 3.27 | 2.63 | 13.9 | 1.52 | 11.5 | 1.88 | 3.66 | 1.17 | 2.68 | 2.47 | 6.24 | 2.96 | 14.4 | 1.67 | 4.99 | 3.39 | > 100 |
| Cc1ccc(N=Nc2c(N)nn(-c3ccccc3)c2N)cc1 | 0.626 | > 100 | 1.65 | > 100 | 1.74 | > 100 | 4.27 | > 100 | – | – | 0.762 | > 100 | 0.464 | – | 2.3 | > 78.3 | 1.04 | > 100 | 0.412 | > 20.6 |

— PubChem BioAssay (NCI)
